Reference: patent US12098217B2, “Fusion peptides as antimicrobial agents” (CENTRE NATIONAL DE LA RECHERCHE SCIENTIFIQUE, priority 2019, dated 2024)
Converted amounts (≈) assume the structure as drawn. Where two headings read alike, the source gives them in different places. Square brackets hold non-standard residues; d marks the D form. Peptide text beside a SMILES is read from it. * marks the point of attachment. 5FAM = O=C1OC2(c3ccc(O)cc3Oc3cc(O)ccc32)c2ccc(C(=O)*)cc21; Phe(3,4-Cl2) = N[C@@H](Cc1ccc(Cl)c(Cl)c1)C(=O)O; Cha = N[C@@H](CC1CCCCC1)C(=O)O

Experiments:
[1] = tested on: E. coli 70S ribosome (^Ec70S); assay: ITC, peptide interaction with E. coli 70S ribosome; type: binding
Method: E. coli MRE600 cells were grown at 37° C. in LB medium until OD^600=1. Cells were centrifuged at 4° C., and pellets were resuspended in buffer A (20 mM Tris HCl pH 7.5; 200 mM NH4Cl; 20 mM MgCl2; 0.1 mM EDTA; 6 mM β-mercaptoethanol) and lysed using a French press at 1.6 kbar. The crude lysate was centrifuged (18 200 rpm) for 30 mn at 4° C. The supernatant was further centrifuged (47000 rpm) at 4° C. for 4 hours and the pellet resuspended in 12.5 ml of buffer A. This solution was laid on a 30% sucrose cushion and centrifuged (34 000 rpm) for 19 hours at 4° C. The ribosome pellet was resuspended in 12.5 ml buffer B (20 mM Tris HCl pH 7.5; 50 mM NH4Cl; 10 mM MgCl2; 0.1 mM EDTA; 6 mM β-mercaptoethanol) and centrifuged again (18 200 rpm) for 1 hour at 4° C. The supernatant was concentrated on Centrikon 100K (Millipore) and washed extensively with ITC 70S buffer. Ribosome concentration was determined by UV absorption at 260 nm. Samples were snap frozen in liquid nitrogen and kept at −80° C.
(§1) ITC experiments were performed on a iTC200 (Microcal Malvern Panalytical) or PEAQ-ITC instrument (Microcal Malvern Panalytical). The E. coli SC were washed extensively with ITC buffer (R1 buffer: 10 mM Hepes pH 7.4, 0.15 M NaCl, 3 mM EDTA) on Centrikon 10K at 4° C. before ITC experiments. […] Similarly, E. coli 70S ribosome particles were also washed extensively with ITC 70S buffer (50 mM Tris HCl pH7.5, 30 mM KCl, 70 mM NH4Cl, 7 mM MgCl2, 1 mM DTT, 5% glycerol) on Centrikon 100K at 4° C. before ITC experiments. Peptides (100 to 400 μM) were titrated at 30° C. (303.15 K) in sequential injections (usually 2 μl each) into a SC (20 or 30 μM) or 70S (10 to 15 μM) solution. Data were corrected from control experiments in which peptides were injected in ITC buffer solution. Each titration was performed at least twice. Analyses of experimental data were performed with AFFINImeter software (https://www.affinimeter.com; S4S, Santiago de Compostela, Spain).
The lack of interaction with the ribosome of E. coli has been measured by ITC at 30° C.:
The interactions of these peptides with the E. coli SC (beta ring) and the ribosome were measured by ITC at […]: […]

E. coli D22 strain = assay: microbe, parasite or virus in culture; type: cell-based; conditions: D22 strain, 36 h
From the text: E. coli strain D22 (F-, IpxC101, proA23, lac-28, tsx-81, trp-30, his-51, tufA1, rpsL173(strR), ampCp-1 was purchased at E. coli Genetic Stock Center (Yale University) and used in the determination of MIC and in the peptide penetration assays. E. coli ATCC23724 cells were used to infect D. melanogaster flies. 70S ribosomes were purified from the E. coli MRE600 strain (Accession AY140951) and BL21 (DE3) pLys strain was used for production of the DnaN protein.
(§2) E. coli strains were cultivated on either agar or liquid 1× Mueller Hinton broth unless specified. MIC assays were performed in duplicate in 96-well microtiter plates on the basis of the protocol recommended by the Clinical and Laboratory Standards Institute. Briefly, a mix of 5-6 fresh (less than 36 hours) colonies grown on MH agar plates were inoculated in 3 ml of MH broth and incubated for about 16 h at 37° C. under agitation. 30 μl of this saturated culture were inoculated in 3 ml of fresh medium and allowed to grow until OD600 nm of about 0.6-0.8. Dilution to an OD600 nm of 0.002 was made in MH broth. Within a time laps not exceeding 30 min, 50 μl of this cell suspension was added to 50 μl of MH broth (containing or not the peptide/antibiotic diluted in MH broth) in wells of a 96-well round bottom microwell plate (Greiner; final cell density about 2 to 5×10^5 cfu/ml). Plates were incubated at 37° C. for 18-24 h and final turbidity of each well was measured at 620 nm using a Multiskan FC microplate reader (Thermo Scientific). MIC was defined as the minimal antibiotic concentration that result in no increase of turbidity at that time. Each MIC determination was performed in duplicate and at least in two independent experiments. Plating of 75 μl of the content of the wells of interest on LB Agar plates was used to determine the MBC that is defined by a decrease of at least 99.9% of cell viability as compared to the number of viable cells in the inoculum (about 2 to 5×10^4 cfu).

[2] = molecular target: T1, E. coli SC (^EcSC, beta ring, DnaN) (Escherichia coli, UniProt P0A988); assay: ITC, peptide interaction with E. coli sliding clamp; type: binding
T1 construct: inferred from the pET15b vector and the Ni-NTA/imidazole purification; made in house; host or cells: E. coli BL21 (DE3) pLys
Method: The DnaN protein was expressed from plasmids pET15b, containing the dnaN gene from E. coli, transfected in BL21 (DE3) pLys E. coli strain. Cells were grown in LB at 37° C. to OD 0.5, then induced by IPTG (0.1 mM) at 28° C. overnight. DnaN protein was first enriched on a Ni-NTA column, eluted with an imidazole step (300 mM) and further purified on a Source Q column in buffer containing 20 mM Tris HCl pH 7.5, 0.5 mM EDTA and 10% glycerol, using a gradient from 0 to 0.5 M NaCl. After a final ultracentrifugation (45K, 1 h, 20° C.), soluble proteins were concentrated on a Centricon 30K (Millipore) in the same buffer and stored at 4° C. in 2 M ammonium sulfate.
as §1, with “[…] […]” for “Peptides (100 to 400 μM) were titrated at 30° C. (303.15 K) in sequential injections (usually 2 μl each) into a SC (20 or 30 μM) or 70S (10 to 15 μM) solution.”

E. coli = conditions: cited from earlier work
[3] = tested on: E. coli ATCC 25922 (DSM 1103) strain; type: cell-based; conditions: for MIC: ATCC 25922, 36 h
Method: as §2
The antimicrobial activities of these peptides have been tested against the E. coli ATCC 25922 (DSM 1103) strain in 1× Mueller-Hinton broth as mentioned above.
The antimicrobial activities of these peptides and controls have been tested against the E. coli ATCC 25922 (DSM 1103) strain in 1× Mueller-Hinton broth.

[4] = ITC 30° C., Table 2B, ^Ec70S, Ni = no specific interaction, FITC peptides (*) values not well defined
[5] = ITC 30° C., Table 2A, ^EcSC, Ni = no specific interaction
[6] = ITC 25° C., E. coli SC (beta ring)
[7] = ITC, 30° C., E. coli ribosome, FITC-Onc112 series

T1 sequence (P0A988 whole entry): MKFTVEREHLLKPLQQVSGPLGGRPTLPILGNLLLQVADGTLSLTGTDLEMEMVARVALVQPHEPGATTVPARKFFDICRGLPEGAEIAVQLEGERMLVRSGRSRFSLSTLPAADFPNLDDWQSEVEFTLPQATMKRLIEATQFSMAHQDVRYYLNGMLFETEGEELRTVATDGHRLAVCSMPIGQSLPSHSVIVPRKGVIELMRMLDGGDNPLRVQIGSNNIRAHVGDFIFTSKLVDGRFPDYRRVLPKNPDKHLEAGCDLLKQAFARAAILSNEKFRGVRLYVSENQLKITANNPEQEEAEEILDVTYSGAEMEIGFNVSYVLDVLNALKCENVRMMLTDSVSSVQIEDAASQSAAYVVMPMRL

With `CC[C@H](C)[C@H](NC(=O)[C@@H]1CCCN1C(=O)[C@H](CCCNC(=N)N)NC(=O)[C@@H]1CCCN1C(=O)[C@@H]1CCCN1C(=O)[C@@H](NC(=O)[C@@H]1CCCN1C(=O)[C@H](CCCNC(=N)N)NC(=O)[C@@H]1CCCN1C(=O)[C@H](CC(C)C)NC(=O)[C@H](Cc1ccc(O)cc1)NC(=O)[C@H](CO)NC(=O)CNC(=O)[C@H](CCCCN)NC(=O)[C@H](CC(=O)O)NC(=O)[C@@H](N)C(C)C)[C@@H](C)O)C(=O)N[C@@H](Cc1ccc(O)cc1)C(=O)N[C@@H](CC(N)=O)C(=O)N[C@@H](CCCNC(=N)N)C(=O)N[C@@H](CC(N)=O)C(N)=O` [Py, reference compound] (H-VDKGSYLPRPTPPRPIYNRN-NH2) the Kd ([1]; ITC 30° C., Table 2B, ^Ec70S, Ni = no specific interaction) was 0.0155 µM, the “ΔG” value [1, 4] was -10.9 kcal/mol and the “ΔH” value [1, 4] was -19.2 kcal/mol. The “−TΔS” value [1, 4] was 8.23 kcal/mol, the “MBC” value (E. coli D22 strain) was 8 µg/mL (≈ 3.42 µM) and the “interaction with ^EcSC, in words” value ([2]; ITC 30° C.) was “do not interact”. The “ΔH (kcal/mole)” value ([2]; ITC 30° C. (303.15 K), Table 2A, ^EcSC, Ni = no specific interaction) was “Ni”, the “Kd (nM)” value [2, 5] was “Ni” and the “ΔG (kcal/mole)” value [2, 5] was “Ni”. For the same compound, the “−TΔS (kcal/mole)” value [2, 5] was “Ni”, the “MIC of previous reports” value (E. coli) was 3.69 to 7.56 µM and the “MIC of previous reports” value (E. coli; other E. coli strains and/or culture media) was 9 to 18 µg/mL.

In the case of `CC[C@H](C)[C@H](NC(=O)[C@@H](CCCNC(=N)N)NC(=O)[C@H](CCCNC(=N)N)NC(=O)[C@@H]1CCCN1C(=O)[C@@H]1CCCN1C(=O)[C@H](CCCNC(=N)N)NC(=O)[C@@H]1CCCN1C(=O)[C@H](CCCNC(=N)N)NC(=O)[C@@H]1CCCN1C(=O)[C@H](CC(C)C)NC(=O)[C@H](Cc1ccc(O)cc1)NC(=O)[C@@H]1CCCN1C(=O)[C@@H]1CCCN1C(=O)[C@H](CCCCN)NC(=O)[C@H](CC(=O)O)NC(=O)[C@@H](NC(=O)[C@H](CCCNC(=N)N)NC(=O)[C@@H]1CCCN1C(=O)CNC(=O)[C@H](Cc1ccccc1)NC(=O)[C@H](CC(C)C)NC(=O)[C@H](CC(=O)O)NC(=O)[C@H](CC1CCCCC1)NC(=O)[C@H](CCC(N)=O)NC(C)=O)C(C)C)C(=O)N[C@@H](Cc1ccc(O)cc1)C(=O)N[C@@H](CC(N)=O)C(=O)N[C@H](CCCNC(=N)N)C(N)=O` [CM1-76] (Ac-Q[Cha]DLFGPRVDKPPYLPRPRPPR[dR]IYN[dR]-NH2), the “interaction with the E. coli ribosome (70S), in words” value ([1]; ITC 25° C.) is reported as “no interaction”, the “MIC” value [3] is reported as 8 to 16 µM and the “factor of improvement of antimicrobial activity versus CA3-30” value ([3]; E. coli ATCC 25922, MIC) is reported as 2. For the same compound, the “ΔG” value [2, 6] was -9.0 kcal/mol and the “ΔH” value [2, 6] was -10.7 kcal/mol.

In the case of `CC[C@H](C)[C@H](NC(=O)[C@@H](CCCNC(=N)N)NC(=O)[C@H](CCCNC(=N)N)NC(=O)[C@@H]1CCCN1C(=O)[C@@H]1CCCN1C(=O)[C@H](CCCNC(=N)N)NC(=O)[C@@H]1CCCN1C(=O)[C@H](CCCNC(=N)N)NC(=O)[C@@H]1CCCN1C(=O)[C@H](CC(C)C)NC(=O)[C@H](Cc1ccc(O)cc1)NC(=O)[C@@H]1CCCN1C(=O)[C@@H]1CCCN1C(=O)[C@H](CCCCN)NC(=O)[C@H](CC(=O)O)NC(=O)[C@@H](NC(=O)[C@H](CCCCN)NC(=O)c1ccc2c(c1)C(=O)OC21c2ccc(O)cc2Oc2cc(O)ccc21)C(C)C)C(=O)N[C@@H](Cc1ccc(O)cc1)C(=O)N[C@@H](CC(N)=O)C(=O)N[C@H](CCCNC(=N)N)C(=O)NCC(=O)N1CCC[C@H]1C(=O)N[C@@H](CCCNC(=N)N)C(=O)N[C@@H](CCC(N)=O)C(=O)N[C@@H](CC1CCCCC1)C(=O)N[C@@H](CC(=O)O)C(=O)N[C@@H](CC(C)C)C(=O)N[C@@H](Cc1ccc(Cl)c(Cl)c1)C(=O)O` [CM1-94] (5FAM-KVDKPPYLPRPRPPR[dR]IYN[dR]GPRQ[Cha]DL[Phe(3,4-Cl2)]-OH; N-terminus assumed), the Kd [1, 7] is reported as > 10 µM and the “MIC” value [3] is reported as 4 to 8 µM.

For `CC[C@H](C)[C@H](NC(=O)[C@@H](CCCNC(=N)N)NC(=O)[C@H](CCCNC(=N)N)NC(=O)[C@@H]1CCCN1C(=O)[C@@H]1CCCN1C(=O)[C@H](CCCNC(=N)N)NC(=O)[C@@H]1CCCN1C(=O)[C@H](CCCNC(=N)N)NC(=O)[C@@H]1CCCN1C(=O)[C@H](CC(C)C)NC(=O)[C@H](Cc1ccc(O)cc1)NC(=O)[C@@H]1CCCN1C(=O)[C@@H]1CCCN1C(=O)[C@H](CCCCN)NC(=O)[C@H](CC(=O)O)NC(=O)[C@@H](NC(=O)c1ccc2c(c1)C(=O)OC21c2ccc(O)cc2Oc2cc(O)ccc21)C(C)C)C(=O)N[C@@H](Cc1ccc(O)cc1)C(=O)N[C@@H](CC(N)=O)C(=O)N[C@H](CCCNC(=N)N)C(N)=O` [CA3-124] (5FAM-VDKPPYLPRPRPPR[dR]IYN[dR]-NH2), the Kd [1, 7] was 7.7 µM, the “ΔG (kcal/mol)” value [1, 7] was −7.1 (±0.4) kcal/mol and the “ΔH” value [1, 7] was -22.6 kcal/mol. The “MIC” value [3] was 32 to 64 µM.
